Experiment [1] has as its system BAF-3/TPO-responsive human cell lines. In words: proliferation of BAF-3/TPO-responsive human cell lines (Table 1). In kind it is cell-based.
A further experiment deals with T1, TPO receptor (Homo sapiens, UniProt P40238).
T1 construct: expressed in transfected cells; host or cells: murine BaF3 cells (TPO-responsive line)
T1 sequence (P40238 26-635): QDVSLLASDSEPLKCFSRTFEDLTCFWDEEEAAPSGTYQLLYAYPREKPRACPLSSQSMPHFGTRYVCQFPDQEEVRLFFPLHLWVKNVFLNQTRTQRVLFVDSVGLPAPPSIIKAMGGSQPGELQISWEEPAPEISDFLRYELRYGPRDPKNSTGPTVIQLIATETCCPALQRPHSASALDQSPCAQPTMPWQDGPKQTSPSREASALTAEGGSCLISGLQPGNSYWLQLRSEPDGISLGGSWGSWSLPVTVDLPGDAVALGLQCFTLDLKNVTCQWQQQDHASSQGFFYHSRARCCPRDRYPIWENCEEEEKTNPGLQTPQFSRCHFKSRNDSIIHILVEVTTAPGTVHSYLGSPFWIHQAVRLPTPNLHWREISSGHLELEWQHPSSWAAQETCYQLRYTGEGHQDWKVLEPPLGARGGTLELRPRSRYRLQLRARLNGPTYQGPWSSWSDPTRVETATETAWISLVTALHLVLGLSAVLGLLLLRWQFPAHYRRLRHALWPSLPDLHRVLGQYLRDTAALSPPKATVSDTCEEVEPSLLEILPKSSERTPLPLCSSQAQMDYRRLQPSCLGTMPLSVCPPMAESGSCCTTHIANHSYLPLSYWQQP
Put plainly: Luciferase assay in TPO-responsive BaF3 cell line. The conditions noted are these: at a concentration of 3 uM. In kind it is cell-based, murine. The method, then: Compounds of the present invention were tested for potency as mimetics of the TPO receptor in a Luciferase assay such as described in Lamb, et al., Nucleic Acids Research 23: 3283–3289 (1995) and Seidel, et al., Proc. Natl. Acad. Sci., USA 92: 3041–3045 (1995) by substituting a TPO-responsive BaF3 cell line (Vigon et al. Proc. Natl. Acad. Sci. USA 1992, 89, 5640–5644) for the HepG2 cells utilized therein. The murine BaF3 cells express TPO receptors and closely match the pattern of STAT (signal transducers and activators of transcription) activation observed in primary murine and human bone marrow cells in response to TPO.

Read-outs that look alike come from different tables or passages of the source.

As a reminder, the EC50 is the concentration at which the effect is half-maximal. The low end stands for higher potency in that assay, the high end for lower potency in that assay.

`Cc1nn(-c2cccc(Cl)c2)c(O)c1C=NNC(=S)Nc1ccc(C(=O)O)cc1` [Example 15.31, 4-(4-carboxyphenyl)-1-[{1-(3-chlorophenyl)-5-hydroxy-3-methylpyrazol-4-yl}methylene]-3-thiosemicarbazide] yielded an Efficacy/%TPOmax in experiment [1] of 100 %TPOmax. Also, it took 30 nM to reach a half-maximal effect in experiment [1] (BaF3) (EC50).
`Cc1ccc(-c2cccc(C=NNC(=S)Nc3cccc(C(=O)O)c3)c2O)cc1C` [Example 15.8, 4-(3-carboxyphenyl)-1-[3-(3,4-dimethylphenyl)-2-hydroxybenzylidene]-3-thiosemicarbazide] gave an Efficacy/%TPOmax in experiment [1] of 90 %TPOmax. This compound also showed a concentration for a half-maximal effect (EC50) in experiment [1] (BaF3) of 30 nM. For the same compound, the “activation, % of control (control is the maximal response to TPO)” value at TPO receptor is listed as “about 20 % of control”.
In experiment [1], `O=C(O)c1ccc(NC(=S)NN=Cc2cccc(-c3cccc(C(F)(F)F)c3)c2O)cc1` [Example 15.9, 4-(4-carboxyphenyl)-1-[2-hydroxy-3-(3-trifluoromethylphenyl)benzylidene]-3-thiosemicarbazide] showed an Efficacy/%TPOmax of 100 %TPOmax. The EC50 in experiment [1] (BaF3) came out at 20 nM.
In turn, `Cc1ccc(-n2nc(C)c(C=NNC(=S)Nc3ccc(C(=O)O)cc3)c2O)cc1` [Example 15.29, 4-(4-carboxyphenyl)-1-[{5-hydroxy-3-methyl-1-(4-methylphenyl)pyrazol-4-yl}methylene]-3-thiosemicarbazide] came in with an Efficacy/%TPOmax in experiment [1] of 100 %TPOmax. Further, the EC50 in experiment [1] (BaF3) was determined as 30 nM.
In the same order, the values of `O=C(O)c1cccc(NC(=S)NN=Cc2cccc(-c3ccc(Cl)cc3)c2O)c1` [Example 15.12, 4-(3-carboxyphenyl)-1-[3-(4-chlorophenyl)-2-hydroxybenzylidene]-3-thiosemicarbazide] are 85 %TPOmax and 60 nM.
For `Cc1ccc(-n2nc(C)c(C=NNC(=S)Nc3cccc(C(=O)O)c3)c2O)cc1` [Example 15.30, 4-(3-carboxyphenyl)-1-[{5-hydroxy-3-methyl-1-(4-methylphenyl)pyrazol-4-yl}methylene]-3-thiosemicarbazide], in that order: 100 %TPOmax and 30 nM.
In experiment [1], `O=C(O)c1cccc(NC(=S)NN=Cc2cccc(-c3cccc(C(F)(F)F)c3)c2O)c1` [Example 15.10, 4-(3-carboxyphenyl)-1-[2-hydroxy-3-(3-trifluoromethylphenyl)benzylidene]-3-3-thiosemicarbazide] returned an EC50 of 50 nM and an Efficacy/%TPOmax of 100 %TPOmax.

The values are drawn from US7241783B2, “Thrombopoietin mimetics” (SmithKline Beecham Corporation, priority 2000, dated 2007).
